Source: US20080207683A1, “BIARYL-S[…]-PYRAZOLO-PYRIDINE MODULATORS OF CATHEPSIN S” (priority 2007, published 2008)

The molecules below were run against T1, Human CatS (Homo sapiens, UniProt P25774) (assay: CatS inhibition of hydrolysis of fluorescent substrate Z-Val-Val-Arg-AFC). Details: not given.
T1 construct: made in house; host or cells: Sf9 insect cells (baculovirus vector pFB+HT)
Type: biochemical
Method: Human CatS was cloned into pFB+HT (from Stratagene clone), expressed in Sf9 cells, and purified over a Ni column. Fractions were concentrated and activated at pH 4.0 for 6 hr and then purified over a thiopropylsepharose column and eluted with 1×TBS, 500 mM NaCl, 1 mM EDTA, 25 mM DTT pH 7.6. Glycerol (50%) was added in a 1:1 (vol/vol) ratio (25% glycerol final) and protein was stored at −80° C. in 5 μL aliquots. […] The increase in fluorescence over time was monitored using λexcitation=400 nm and λemission=505 nm.
In equation 1, v is the initial rate measured in the presence of [I]0, the inhibitor concentration, using an enzyme concentration [E]0. v0 is the initial rate measured in the absence of inhibitor.

T1 sequence (P25774 115-331): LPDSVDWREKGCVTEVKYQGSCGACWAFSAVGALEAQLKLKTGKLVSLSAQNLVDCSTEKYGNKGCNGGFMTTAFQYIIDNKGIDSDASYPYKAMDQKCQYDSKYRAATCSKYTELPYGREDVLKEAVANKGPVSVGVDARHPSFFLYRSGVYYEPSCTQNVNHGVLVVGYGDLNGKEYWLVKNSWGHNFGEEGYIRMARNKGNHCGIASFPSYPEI

Q: Which Ki does the source give for `Cc1ccc2[nH]c([C@H](C)NC(=O)c3cccc(-c4cc(-c5nn(CCCN6CCCC6)c6c5CN(S(C)(=O)=O)CC6)ccc4Cl)c3)nc2c1` [Example 20, (S)-2′-Chloro-5′-[5-methanesulfonyl-1-(3-pyrrolidin-1-yl-propyl)-4,5,6,7-tetrahydro-1H-pyrazolo[4,3-c]pyridin-3-yl]-biphenyl-3-carboxylic acid [1-(5-methyl-1H-benzoimidazol-2-yl)-ethyl]-amide] here?
A: 188 nM

Same assay, conditions: apparent Ki, Morrison equation fit of initial rates; 10 μM Z-Val-Val-Arg-AFC, pH 5.0, 1.5 nM CatS; read-out: CatS Ki^app

Q: `CC(C)c1ccc(NCCNC(=O)c2cccc(-c3cc(-c4nn(CCCN5CCC(O)C5)c5c4CNCC5)ccc3Cl)c2)cc1` (stereo not drawn) [Example 43, 2′-Chloro-5′-{1-[3-(3-hydroxy-pyrrolidin-1-yl)-propyl]-4,5,6,7-tetrahydro-1H-pyrazolo[4,3-c]pyridin-3-yl}-biphenyl-3-carboxylic acid [2-(4-isopropyl-phenylamino)-ethyl]-amide] was tested. Which Ki did it give?
A: 48.5 nM

Q: Which Ki does the source give for `CC(=O)N1CCc2c(c(-c3ccc(Cl)c(-c4cccc(C(=O)NC(C)c5nc6cc(C)ccc6[nH]5)c4)c3)nn2CCCN2CCCC2)C1` (stereo not drawn) [Example 39, 5′-[5-Acetyl-1-(3-pyrrolidin-1-yl-propyl)-4,5,6,7-tetrahydro-1H-pyrazolo[4,3-c]pyridin-3-yl]-2′-chloro-biphenyl-3-carboxylic acid [1-(5-methyl-1H-benzoimidazol-2-yl)-ethyl]-amide] here?
A: 37 nM

Q: `CS(=O)(=O)N1CCc2c(c(-c3ccc(Cl)c(-c4cccc(C(=O)NCc5nc(-c6ccccc6)cs5)c4)c3)nn2CCCN2CCCC2)C1` [Example 23, 2′-Chloro-5′-[5-methanesulfonyl-1-(3-pyrrolidin-1-yl-propyl)-4,5,6,7-tetrahydro-1H-pyrazolo[4,3-c]pyridin-3-yl]-biphenyl-3-carboxylic acid (4-phenyl-thiazol-2-ylmethyl)-amide] was tested. Which Ki did it give?
A: 88.9 nM

Q: For `CN(C)S(=O)(=O)c1cccc2c1N(CCNC(=O)c1cccc(-c3cc(-c4nn(CCCN5CCC(O)C5)c5c4CNCC5)ccc3Cl)c1)CC2` (stereo not drawn) [Example 45, 2′-Chloro-5′-{1-[3-(3-hydroxy-pyrrolidin-1-yl)-propyl]-4,5,6,7-tetrahydro-1H-pyrazolo[4,3-c]pyridin-3-yl}-biphenyl-3-carboxylic acid [2-(7-dimethylsulfamoyl-2,3-dihydro-indol-1-yl)-ethyl]-amide], which Ki is on record?
A: 225 nM

Q: For `CN(C)S(=O)(=O)c1ccc2c(c1)N(CCNC(=O)c1cccc(-c3cc(-c4nn(CCCN5CCC(O)C5)c5c4CNCC5)ccc3Cl)c1)CC2` (stereo not drawn) [Example 46, 2′-Chloro-5′-{1-[3-(3-hydroxy-pyrrolidin-1-yl)-propyl]-4,5,6,7-tetrahydro-1H-pyrazolo[4,3-c]pyridin-3-yl}-biphenyl-3-carboxylic acid [2-(6-dimethylsulfamoyl-2,3-dihydro-indol-1-yl)-ethyl]-amide], which Ki is on record?
A: 510 nM

Q: How did the Ki turn out when `CC(=O)N1CCc2c(c(-c3ccc(Cl)c(-c4cccc(C(=O)N[C@@H](C)CN5CCc6cc(F)ccc65)c4)c3)nn2CCCN2CCCC2)C1` [Example 36, (S)-5′-[5-Acetyl-1-(3-pyrrolidin-1-yl-propyl)-4,5,6,7-tetrahydro-1H-pyrazolo[4,3-c]pyridin-3-yl]-2′-chloro-biphenyl-3-carboxylic acid [2-(5-fluoro-2,3-dihydro-indol-1-yl)-1-methyl-ethyl]-amide] was run?
A: 736 nM

Q: Which Ki does the source give for `COc1ccc(NCCNC(=O)c2cccc(-c3cc(-c4nn(CCCN5CCC(O)C5)c5c4CNCC5)ccc3Cl)c2)cc1` (stereo not drawn) [Example 44, 2′-Chloro-5′-{1-[3-(3-hydroxy-pyrrolidin-1-yl)-propyl]-4,5,6,7-tetrahydro-1H-pyrazolo[4,3-c]pyridin-3-yl}-biphenyl-3-carboxylic acid [2-(4-methoxy-phenylamino)-ethyl]-amide] here?
A: 30.4 nM

Q: How did the Ki turn out when `CS(=O)(=O)N1CCc2c(c(-c3ccc(Cl)c(-c4cccc(C(=O)NCCN5CCc6ccc(F)cc65)c4)c3)nn2CCCN2CCC(N3CCCC3=O)CC2)C1` [Example 33, 2′-Chloro-5′-(5-methanesulfonyl-1-{3-[4-(2-oxo-pyrrolidin-1-yl)-piperidin-1-yl]-propyl}-4,5,6,7-tetrahydro-1H-pyrazolo[4,3-c]pyridin-3-yl)-biphenyl-3-carboxylic acid [2-(6-fluoro-2,3-dihydro-indol-1-yl)-ethyl]-amide] was run?
A: 163 nM

Q: `Cc1ccc2[nH]c(C(C)NC(=O)c3cccc(-c4cc(-c5nn(CCCN6CCCC6)c6c5CN(S(C)(=O)=O)CC6)ccc4Cl)c3)nc2c1` (stereo not drawn) [Example 16, 2′-Chloro-5′-[5-methanesulfonyl-1-(3-pyrrolidin-1-yl-propyl)-4,5,6,7-tetrahydro-1H-pyrazolo[4,3-c]pyridin-3-yl]-biphenyl-3-carboxylic acid [1-(5-methyl-1H-benzoimidazol-2-yl)-ethyl]-amide] was tested. Which Ki did it give?
A: 24 nM

Q: How did the Ki turn out when `CS(=O)(=O)N1CCc2c(c(-c3ccc(Cl)c(-c4cccc(C(=O)NCCNc5cccc6c5CCC6)c4)c3)nn2CCCN2CCCC2)C1` [Example 3, 2′-Chloro-5′-[5-methanesulfonyl-1-(3-pyrrolidin-1-yl-propyl)-4,5,6,7-tetrahydro-1H-pyrazolo[4,3-c]pyridin-3-yl]-biphenyl-3-carboxylic acid [2-(indan-4-ylamino)-ethyl]-amide] was run?
A: 335 nM

Q: For `CS(=O)(=O)N1CCc2c(c(-c3ccc(Cl)c(-c4cccc(C(=O)NCCNc5ccc(OCC6CCCC6)cc5)c4)c3)nn2CCCN2CCCC2)C1` [Example 5, 2′-Chloro-5′-[5-methanesulfonyl-1-(3-pyrrolidin-1-yl-propyl)-4,5,6,7-tetrahydro-1H-pyrazolo[4,3-c]pyridin-3-yl]-biphenyl-3-carboxylic acid [2-(4-cyclopentylmethoxy-phenylamino)-ethyl]-amide], which Ki is on record?
A: 60.2 nM

Q: Which Ki does the source give for `CS(=O)(=O)N1CCc2c(c(-c3ccc(Cl)c(-c4cccc(C(=O)NCc5ncco5)c4)c3)nn2CCCN2CCC(N3CCCC3=O)CC2)C1` [Example 32, 2′-Chloro-5′-(5-methanesulfonyl-1-{3-[4-(2-oxo-pyrrolidin-1-yl)-piperidin-1-yl]-propyl}-4,5,6,7-tetrahydro-1H-pyrazolo[4,3-c]pyridin-3-yl)-biphenyl-3-carboxylic acid (oxazol-2-ylmethyl)-amide] here?
A: 264 nM

Q: With `CC(=O)N1CCc2c(c(-c3ccc(Cl)c(-c4cccc(C(=O)N[C@@H](C)c5nc6cc(F)c(F)cc6[nH]5)c4)c3)nn2CCCN2CCCC2)C1` [Example 37, (S)-5′-[5-Acetyl-1-(3-pyrrolidin-1-yl-propyl)-4,5,6,7-tetrahydro-1H-pyrazolo[4,3-c]pyridin-3-yl]-2′-chloro-biphenyl-3-carboxylic acid [1-(5,6-difluoro-1H-benzoimidazol-2-yl)-ethyl]-amide] as the molecule, how does the Ki read?
A: 38.5 nM

Q: How did the Ki turn out when `COc1ccc(NCCNC(=O)c2cccc(-c3cc(-c4nn(CCCN5CCC(O)C5)c5c4CN(S(C)(=O)=O)CC5)ccc3Cl)c2)cc1` (stereo not drawn) [Example 28, 2′-Chloro-5′-{1-[3-(3-hydroxy-pyrrolidin-1-yl)-propyl]-5-methanesulfonyl-4,5,6,7-tetrahydro-1H-pyrazolo[4,3-c]pyridin-3-yl}-biphenyl-3-carboxylic acid [2-(4-methoxy-phenylamino)-ethyl]-amide] was run?
A: 19.5 nM

Q: For `CS(=O)(=O)N1CCc2c(c(-c3ccc(Cl)c(-c4cccc(C(=O)NCc5nc6ccccc6s5)c4)c3)nn2CCCN2CCC(O)C2)C1` (stereo not drawn) [Example 30, 2′-Chloro-5′-{1-[3-(3-hydroxy-pyrrolidin-1-yl)-propyl]-5-methanesulfonyl-4,5,6,7-tetrahydro-1H-pyrazolo[4,3-c]pyridin-3-yl}-biphenyl-3-carboxylic acid (benzothiazol-2-ylmethyl)-amide], which Ki is on record?
A: 325 nM

Q: Which Ki does the source give for `CS(=O)(=O)N1CCc2c(c(-c3ccc(Cl)c(-c4cccc(C(=O)NCc5cccs5)c4)c3)nn2CCCN2CCCC2)C1` [Example 14, 2′-Chloro-5′-[5-methanesulfonyl-1-(3-pyrrolidin-1-yl-propyl)-4,5,6,7-tetrahydro-1H-pyrazolo[4,3-c]pyridin-3-yl]-biphenyl-3-carboxylic acid (thiophen-2-ylmethyl)-amide] here?
A: 350 nM

Q: With `CS(=O)(=O)N1CCc2c(c(-c3ccc(Cl)c(-c4cccc(C(=O)NCc5ncco5)c4)c3)nn2CCCN2CCCC2)C1` [Example 12, 2′-Chloro-5′-[5-methanesulfonyl-1-(3-pyrrolidin-1-yl-propyl)-4,5,6,7-tetrahydro-1H-pyrazolo[4,3-c]pyridin-3-yl]-biphenyl-3-carboxylic acid (oxazol-2-ylmethyl)-amide] as the molecule, how does the Ki read?
A: 240 nM

Q: `COc1ccc(NCCNC(=O)c2cccc(-c3cc(-c4nn(CCCN5CCCC5)c5c4CN(S(C)(=O)=O)CC5)ccc3Cl)c2)cc1` [Example 1, 2′-Chloro-5′-[5-methanesulfonyl-1-(3-pyrrolidin-1-yl-propyl)-4,5,6,7-tetrahydro-1H-pyrazolo[4,3-c]pyridin-3-yl]-biphenyl-3-carboxylic acid [2-(4-methoxy-phenylamino)-ethyl]-amide] was tested. Which Ki did it give?
A: 85 nM

Q: `COc1ccc(NCCNC(=O)c2cccc(-c3cc(-c4nn(CCCN5CCCC5)c5c4CN(S(C)(=O)=O)CC5)ccc3Cl)c2)cc1Cl` [Example 4, 2′-Chloro-5′-[5-methanesulfonyl-1-(3-pyrrolidin-1-yl-propyl)-4,5,6,7-tetrahydro-1H-pyrazolo[4,3-c]pyridin-3-yl]-biphenyl-3-carboxylic acid [2-(3-chloro-4-methoxy-phenylamino)-ethyl]-amide] was tested. Which Ki did it give?
A: 253 nM

Q: How did the Ki turn out when `CC(=O)N1CCc2c(c(-c3ccc(Cl)c(-c4cccc(C(=O)NCCN5CCc6cc(C)ccc65)c4)c3)nn2CCCN2CCCC2)C1` [Example 40, 5′-[5-Acetyl-1-(3-pyrrolidin-1-yl-propyl)-4,5,6,7-tetrahydro-1H-pyrazolo[4,3-c]pyridin-3-yl]-2′-chloro-biphenyl-3-carboxylic acid [2-(5-methyl-2,3-dihydro-indol-1-yl)-ethyl]-amide] was run?
A: 228 nM
